Data on three compounds can be found in patent publication USRE48335E1, “Polymyxin derivatives as antimicrobial compounds” (priority 2014, dated 2020).

Structures are written as SMILES. Converted amounts (≈) assume the structure as drawn. Like-named read-outs stand apart in the source and are kept apart here. Positions of bridges follow the written chain, without caps; N, C: chain ends. Non-standard residues stand in square brackets, D forms with d. Residues, ends and D or L forms follow the SMILES beside them. *: point of attachment. Benzoyl(3,5-Cl2) = O=C(c1cc(Cl)cc(Cl)c1)*; Benzoyl(3-CF3) = O=C(c1cccc(C(F)(F)F)c1)*; Benzoyl(4-Ph) = O=C(c1ccc(-c2ccccc2)cc1)*; dNle = CCCC[C@@H](N)C(=O)O; Dab = NCC[C@H](N)C(=O)O; Dap = NC[C@H](N)C(=O)O

The subject of experiment [1] is P. aeruginosa ATCC 27853. Briefly: In vivo efficacy in mouse blood infection model (neutropenic Swiss mice). Conditions: compound, free base 4 mg/kg intravenously 2 h after inoculation, blood at 4 h. The method, then:
P. aeruginosa ATCC 27853, A. baumannii ATCC 19606 and K. pneumoniae FADDI-KP032 were subcultured on nutrient agar plates. One colony of each bacterial strain was dispersed in 10-mL CAMHB and incubated overnight. On day 2, an aliquot (0.2 mL) of each overnight culture suspension was dispersed in 20-mL CAMHB and incubated for 1.5-2.5 h for production of early log-phase growth bacterial culture. The bacteria in the early log-phase growth suspension were concentrated by centrifugation (3,220 g for 10 min) and re-suspended in sterile 0.9% saline for inoculation into mice. The bacterial cell concentration (colony forming unit [CFU]/mL) in saline was estimated by determining the optical density (OD) of the suspension at 600 nm, and confirmed by plating the suspension on nutrient agar plates. Swiss mice (22 to 28 g) were rendered neutropenic by injecting two doses of cyclophosphamide intraperitoneally, −4 day (150 mg/kg) and −1 day (100 mg/kg) prior to inoculation. Bloodstream infection was established by injecting intravenously 50 μL of early log-phase bacterial suspension (10^8-10^9 CFU/mL). The exact injection volume for each bacterial suspension was calculated based upon the OD value of the bacterial suspension and the desired inoculum for each isolate.
Solutions for administration of colistin, polymyxin B or the compounds were prepared at a concentration of 1 mg (free base) per mL in sterile 0.9% saline. At 2 h after inoculation, a mouse in the treatment groups was injected intravenously with one of the above solutions at 4 μL/g body weight (BW) (i.e. free base 4 mg/kg BW), while the same volume of saline was injected into the control mice. At 0 h or at 4 h after the administration of antibacterial drug or saline (control), animals were euthanised by inhalation of overdose isoflurane. The skin on the chest and fore-paws of each animal was thoroughly cleansed with 70% ethanol and Betadine®. The blood was collected via cardiac puncture using a 1-mL syringe rinsed with heparin (5,000 IU/mL), diluted serially in sterile 0.9% saline and plated on nutrient agar plates using a spiral plater.
The agar plates were incubated at 37° C. overnight. The bacterial colonies on the plate were counted and CFU/mL of the blood was calculated. The log10 CFU/mL of blood in each mouse was calculated. The in vivo activity of the compounds against the bacteria was calculated as the difference of the log10 CFU/mL values between the treated mice and the control mice at 4 h (Δ log=log10 (treated)CFU/mL−log10 (control)CFU/mL).
Any compound showing a decrease in bacterial loading (Δ log) of ≥2 at 4 h is considered to have good in vivo efficacy in this initial screening model.

The test system of experiment [2] is Acinetobacter baumannii. The procedure, abridged: (§1)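 MICs were determined for the lipopeptides, tested as trifluoroacetic acid salts, by broth microdilution in cation-adjusted Mueller-Hinton broth following CLSI standards (M100-S18). Polymyxin B sulphate served as the control.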
For experiment [3], the system named is Klebsiella pneumoniae. The procedure, abridged: as §1
The test system of experiment [4] is Enterobacter cloacae. The procedure, abridged:
as §1

Experiment [5] has as its system Pseudomonas aeruginosa. The procedure, abridged:
as §1

Where [6] appears, read: Acinetobacter baumannii ATCC 17978, broth microdilution in CAMHB.
Where [7] appears, read: Acinetobacter baumannii ATCC 19606, broth microdilution in CAMHB.
The mark [8] stands for this setting: Acinetobacter baumannii FADDI-AB034, broth microdilution in CAMHB.
The mark [9] stands for this setting: Enterobacter cloacae FADDI-EC001, broth microdilution in CAMHB.
The mark [10] stands for this setting: Enterobacter cloacae FADDI-EC003, broth microdilution in CAMHB.
The mark [11] stands for this setting: Enterobacter cloacae FADDI-EC006, broth microdilution in CAMHB.
The mark [12] stands for this setting: Pseudomonas aeruginosa ATCC 27853, broth microdilution in CAMHB.
The mark [13] stands for this setting: Pseudomonas aeruginosa FADDI-PA022, broth microdilution in CAMHB.
Where [14] appears, read: Pseudomonas aeruginosa FADDI-PA025, broth microdilution in CAMHB.

Usually MIC stands for the smallest concentration in the dilution series that meets the test's criterion for growth inhibition. The low end stands for a more susceptible organism, the high end for a less susceptible organism. `CC(C)C[C@H]1NC(=O)[C@H](CCN)NC(=O)[C@@H](NC(=O)[C@H](CN)NC(=O)[C@@H](NC(=O)[C@H](CCN)NC(=O)c2cc(Cl)cc(Cl)c2)[C@@H](C)O)CCNC(=O)[C@H]([C@@H](C)O)NC(=O)[C@H](CCN)NC(=O)[C@H](CCN)NC(=O)[C@H](C)NC1=O` [Compound 117] ({Benzoyl(3,5-Cl2)}-[Dab]T[Dap][Dab][Dab][dL]A[Dab][Dab]T; lactam 4-C): the “Δ log (Treated-Control at 4 h)” value in experiment [1] is −2.99 log10 CFU/mL. The MIC in experiment [2] (A. baumannii ATCC 19606) is given as 1 mg/L (≈ 0.872 µM); in experiment [3] (K. pneumoniae FADDI-KP032), 0.25 mg/L (≈ 0.218 µM); in experiment [5] (P. aeruginosa ATCC 27853) it was 0.25 mg/L (≈ 0.218 µM). Besides, in experiment [2] (setting [6]), the “Minimum inhibitory concentration, Ab A ATCC 17978” value was 0.25 mg/L (≈ 0.218 µM). Moreover, the “Minimum inhibitory concentration, Ab ATCC 19606” value in experiment [2] (setting [7]) turned out to be 1 mg/L (≈ 0.872 µM). Moreover, the “Minimum inhibitory concentration, Ab FADDI-AB034” value in experiment [2] (setting [8]) turned out to be 1 mg/L (≈ 0.872 µM). Moreover, the “Minimum inhibitory concentration, Ec FADDI-EC001” value in experiment [4] (setting [9]) was 0.25 mg/L (≈ 0.218 µM). Also, the “Minimum inhibitory concentration, Ec FADDI-EC003” value in experiment [4] (setting [10]) is recorded as 0.25 mg/L (≈ 0.218 µM). In experiment [4] (setting [11]), the “Minimum inhibitory concentration, Ec FADDI-EC006” value is reported as 1 mg/L (≈ 0.872 µM). In experiment [5] (setting [12]), the “Minimum inhibitory concentration, Pa ATCC 27853” value is 0.25 mg/L (≈ 0.218 µM). Moreover, the “Minimum inhibitory concentration, Pa FADDI-PA022” value in experiment [5] (setting [13]) came to 2 mg/L (≈ 1.74 µM). The “Minimum inhibitory concentration, Pa FADDI-PA025” value in experiment [5] (setting [14]) turned out to be 2 mg/L (≈ 1.74 µM).
As for `CCCC[C@H]1NC(=O)[C@H](CCN)NC(=O)[C@@H](NC(=O)[C@H](CN)NC(=O)[C@@H](NC(=O)[C@H](CCN)NC(=O)c2cccc(C(F)(F)F)c2)[C@@H](C)O)CCNC(=O)[C@H]([C@@H](C)O)NC(=O)[C@H](CCN)NC(=O)[C@H](CCN)NC(=O)[C@H](C)NC1=O` [Compound 125] ({Benzoyl(3-CF3)}-[Dab]T[Dap][Dab][Dab][dNle]A[Dab][Dab]T; lactam 4-C), the “Δ log (Treated-Control at 4 h)” value in experiment [1] is given as −3.66 log10 CFU/mL. In experiment [2], the MIC amounted to 1 mg/L (≈ 0.873 µM); the “Minimum inhibitory concentration, Ab A ATCC 17978” value is recorded as 1 mg/L (≈ 0.873 µM); the “Minimum inhibitory concentration, Ab ATCC 19606” value was determined as 1 mg/L (≈ 0.873 µM); the “Minimum inhibitory concentration, Ab FADDI-AB034” value is listed as 0.5 mg/L (≈ 0.437 µM). Besides, the minimal inhibitory concentration (MIC) in experiment [3] came out at 0.25 mg/L (≈ 0.218 µM). Further, in experiment [4], the “Minimum inhibitory concentration, Ec FADDI-EC001” value stood at 0.5 mg/L (≈ 0.437 µM); the “Minimum inhibitory concentration, Ec FADDI-EC003” value was determined as 0.5 mg/L (≈ 0.437 µM); the “Minimum inhibitory concentration, Ec FADDI-EC006” value was determined as 1 mg/L (≈ 0.873 µM). In experiment [5], the MIC is on record as 0.25 mg/L (≈ 0.218 µM); the “Minimum inhibitory concentration, Pa ATCC 27853” value worked out at 0.25 mg/L (≈ 0.218 µM); the “Minimum inhibitory concentration, Pa FADDI-PA022” value worked out at 0.5 mg/L (≈ 0.437 µM); the “Minimum inhibitory concentration, Pa FADDI-PA025” value is listed as 2 mg/L (≈ 1.75 µM).
In the case of `CC(C)C[C@H]1NC(=O)[C@H](CCN)NC(=O)[C@@H](NC(=O)[C@H](CCN)NC(=O)[C@@H](NC(=O)[C@H](CCN)NC(=O)c2ccc(-c3ccccc3)cc2)[C@@H](C)O)CCNC(=O)[C@H]([C@@H](C)O)NC(=O)[C@H](CCN)NC(=O)[C@H](CCN)NC(=O)[C@H]([C@@H](C)O)NC1=O` [Compound 29] ({Benzoyl(4-Ph)}-[Dab]T[Dab][Dab][Dab][dL]T[Dab][Dab]T; lactam 4-C), in experiment [1], the “Δ log (Treated-Control at 4 h)” value is −2.80 log10 CFU/mL. The MIC in experiment [2] (A. baumannii ATCC 19606) turned out to be 8 mg/L (≈ 6.68 µM); in experiment [3] (K. pneumoniae FADDI-KP032), 1 mg/L (≈ 0.835 µM); in experiment [5] (P. aeruginosa ATCC 27853) it was 1 mg/L (≈ 0.835 µM). Moreover, the “Minimum inhibitory concentration, Ab A ATCC 17978” value in experiment [2] (setting [6]) stood at 2 mg/L (≈ 1.67 µM). The “Minimum inhibitory concentration, Ab ATCC 19606” value in experiment [2] (setting [7]) is recorded as 8 mg/L (≈ 6.68 µM). Further, the “Minimum inhibitory concentration, Ab FADDI-AB034” value in experiment [2] (setting [8]) stood at 4 mg/L (≈ 3.34 µM). In addition, in experiment [4] (setting [9]), the “Minimum inhibitory concentration, Ec FADDI-EC001” value worked out at 0.5 mg/L (≈ 0.418 µM). Moreover, the “Minimum inhibitory concentration, Ec FADDI-EC003” value in experiment [4] (setting [10]) is 1 mg/L (≈ 0.835 µM). For the same compound, in experiment [4] (setting [11]), the “Minimum inhibitory concentration, Ec FADDI-EC006” value amounted to 0.5 mg/L (≈ 0.418 µM). In experiment [5] (setting [12]), the “Minimum inhibitory concentration, Pa ATCC 27853” value is 1 mg/L (≈ 0.835 µM). For the same compound, the “Minimum inhibitory concentration, Pa FADDI-PA022” value in experiment [5] (setting [13]) was found to be 4 mg/L (≈ 3.34 µM). For the same compound, the “Minimum inhibitory concentration, Pa FADDI-PA025” value in experiment [5] (setting [14]) is 32 mg/L (≈ 26.7 µM).
